These results are taken from patent US6228872A, “Neurotrophic diamide and carbamate agents” (Bristol-Myers Squibb Company, priority 1999, dated 2001).

Like-named read-outs stand apart in the source and are kept apart here.

The target in one assay is FKBP12 (Homo sapiens, UniProt P62942). In words: FKBP12 Rotamase Inhibition Assay. The format is biochemical. Particulars: 1 μM, read-out: % rotamase inhib. at 1 μM. The protocol:
FKBP12 Rotamase Inhibition Assay
The rotamase activity of FKBP-12 was measured by an adaptation of the assay described by Kofron et al. (Biochemistry, 30, pp. 6127-6134 (1991)). The assay was carried out at 4° C. with 1 mg chymotrypsin/mL of assay with succinyl-Ala-Leu-Pro-Phe-p-nitroanilide as the substrate. Chymotrypsin rapidly hydrolyzes the peptide bond on the C-terminal side of the Phe of the trans form of the peptide and releases the chromogenic p-nitroaniline. The rate of the reaction is controlled by the rate of conversion of the cis form of the peptide to the trans-form, the reaction catalyzed by FKBP12. The apparent Ki values for inhibition of the rotamase activity were determined by measuring decreases in the first order rate constant of the reaction catalyzed by FKBP12 as a function of the concentrations of the compounds described herein. Ki is the concentration of the compound that causes 50 percent inhibition of rotamase activity which is indicative of neurite outgrowth activity.

The conditions of assay [1]: in vitro and in vivo; cited from earlier work.
The next assay relates to HIV-infected cells. The note with it: cited from earlier work.

Sequence of FKBP12 (P62942 whole entry, species assumed): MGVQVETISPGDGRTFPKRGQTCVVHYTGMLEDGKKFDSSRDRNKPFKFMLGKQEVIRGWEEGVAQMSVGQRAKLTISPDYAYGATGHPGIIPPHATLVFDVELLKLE

Consider `COc1ccc(CCCN(CCCc2cccnc2)C(=O)OC[C@@H]2CCCN2C(=O)C(F)(F)c2cc(OC)c(OC)c(OC)c2)cc1` [Example 38, N-(3,4,5-Trimethoxyphenyl)-difluoroacetyl-L-pyrrolidinylmethyl-[N',N'-3-(3-pyridyl)propyl-3-(4-methoxyphenyl)propylamino]carbamate], for which the inhibition at 1 µM at FKBP12 (Table 3) worked out at 95%.

As to `COc1cc(CCCN(CCCc2cccnc2)C(=O)OC[C@@H]2CCCN2C(=O)C(F)(F)c2cc(OC)c(OC)c(OC)c2)cc(OC)c1OC` [Example 39, N-(3,4,5-Trimethoxyphenyl)-difluoroacetyl-L-pyrrolidinylmethyl-[N',N'-3-(3-pyridyl)propyl-3-(3,4,5-trimethoxyphenyl)propylamino]carbamate], the inhibition at 1 µM at FKBP12 (Table 3) was determined as 92%.

Regarding `COc1ccc(CCCCN(CCCc2cccnc2)C(=O)OC[C@@H]2CCCN2C(=O)C(F)(F)c2cc(OC)c(OC)c(OC)c2)cc1OC` [Example 40, N-(3,4,5-Trimethoxyphenyl)-difluoroacetyl-L-pyrrolidinylmethyl-[N',N'-3-(3-pyridyl)propyl-4-(3,4-dimethoxyphenyl)butylamino]carbamate], on FKBP12 (Table 3), the inhibition at 1 µM came out at 98%.

`COc1cc(C(F)(F)C(=O)N2CCCC[C@H]2CCC(=O)N(CCCc2ccccc2)CCCc2cccnc2)cc(OC)c1OC` [Example 44, N,N-(3-Phenylpropyl)-3-(3-pyridyl)propyl-2-[(S)-N'-(3,4,5-Trimethoxyphenyl)-difluoroacetyl-2-piperidinyl]propionamide]: the inhibition at 1 µM at FKBP12 (Table 4) amounted to 0%.

For the compound `COc1cc(C(F)(F)C(=O)N2CCC[C@H]2CCC(=O)N(CCCc2ccccc2)CCCc2cccnc2)cc(OC)c1OC` [Example 45, N,N-(3-Phenylpropyl)-3-(3-pyridyl)propyl-2-[(S)-N'-(3,4,5-Trimethoxyphenyl)-difluoroacetyl-2-pyrrolidinyl]propionamide], the inhibition at 1 µM at FKBP12 (Table 4) amounted to 42%.

With `C=CC[C@@H]1/C=C(\C)C[C@H](C)C[C@H](OC)[C@H]2O[C@@](O)(C(=O)C(=O)N3CCCC[C@H]3C(=O)O[C@H](/C(C)=C/[C@@H]3CC[C@@H](O)[C@H](OC)C3)[C@H](C)[C@@H](O)CC1=O)[C@H](C)C[C@@H]2OC` [FK506], the neurotrophic properties entry in assay [1] was “possess neurotrophic properties in vitro and in vivo”. Besides, in the assay with HIV-infected cells, the “inhibition of growth of HIV-infected cells” value is recorded as “inhibits the growth of HIV-infected cells”.
